Read-outs that look alike come from different tables or passages of the source.
What was measured:
LDHB [1] = target: T1, LDHB (Homo sapiens, UniProt P07195); experiment: LDHB enzyme assay by RapidFire-MS (NADH to NAD+ conversion); format: biochemical; details: RF-MS
T1 construct: purchased R&D Systems
Description: (§1) To compare the selectivity potency of the 22 selected compounds, we evaluated the compounds against human LDHB and LDHA by RF-MS. […] The Km value was also determined for the LDHA reaction. All EC50 values are listed in Supplementary Table 1.
We screened for compounds (final concentration: 10 μM) within pooled libraries consisting of more than 345,000 compounds. Each compound in DMSO (1 mM) was dispensed into 384-well V base plates (100 nL/well) using an Echo 555 acoustic dispenser (Labcyte, Sunnyvale, CA, USA). LDHB (5 μL) was diluted in assay buffer (20 mM Tris [pH 7.5], containing 2 mM DTT, 0.005% Triton X100, and 0.005% BSA) and dispensed into assay plates (final concentration: 0.25 nM). […] After incubation for 30 min at room temperature, acetonitrile (10 μL) and water (50 μL) were added to quench the reaction. All additions were performed using a Multidrop Combi (Thermo Fisher Scientific, Waltham, MA, USA). Assay plates were sealed and centrifuged (2700× g for 10 min) before storage at − 20 °C.
(§2) For RF-MS (Agilent, Wakefield, MA, USA), the enzyme reaction solution (5 μL) was aspirated directly from the quenched assay plates and loaded onto a C8 solid-phase extraction cartridge (Agilent) with a mobile phase of water containing DHAA (5 mM) for 2500 ms at a flow rate of 1.25 mL/min. The analytes were then co-eluted into the mass spectrometer using water:acetonitrile:acetone (2:1:1) containing ammonium acetate (5 mM) for 5000 ms at a flow rate of 1.0 ml/min. […] The extracted ion chromatograms for each transition were integrated and processed using RapidFire Integrator (Agilent). The data for each well were normalised using the monitoring product conversion with the ratio of AUCproduct / (AUCproduct + AUCsubstrate).
To determine the compound activities, percent inhibition data normalised to 0% (DMSO only) and 100% inhibition (no-enzyme control) wells were calculated. Data analysis was performed using the Tibco Spotfire (Boston, MA, USA) packages.
(§3) The reaction product was measured by RF-MS. To estimate the Km and Vmax values, the initial rates were fit to the Michaelis–Menten equation. EC50 and Hill slope calculation and curve fitting using four-parameter fits were performed using GraphPad Prism v6.07 (GraphPad Software, San Diego, CA, USA) or XLfit (IDBS, Guildford, UK) with nonlinear regression analysis, wherein the EC50 value equaled the concentration at which the inflection point of the fitted model was reached. The quality and robustness of the screening campaign process were determined by analysing the Z’ factor.

human LDHA = target: T2, human LDHA (Homo sapiens, UniProt P00338); experiment: LDHA enzyme assay by RapidFire-MS; format: biochemical
T2 construct: purchased R&D Systems
Description: as §1
These concentrations were chosen based on fitting to the Michaelis–Menten model with the Km values (Supplementary Figure S2).
as §2
To determine the compound activities, percent inhibition data normalised to 0% (DMSO only) and 100% inhibition (no-enzyme control) wells were calculated. […]
The reaction product was measured by RF-MS. […] The quality and robustness of the screening campaign process were determined by analysing the Z’ factor.

LDHB [2] = target: T1, LDHB; experiment: Substrate-competition assay (varying NADH or pyruvate); format: biochemical; details: for Vmax (NADH): NADH titration; for Vmax (Pyruvate): pyruvate titration
Description: To elucidate the underlying inhibitory mechanism, substrate competition assays were performed. LDHB inhibitory activity for AXKO-0046 was assessed at different concentrations of the substrate.
Moreover, the Km and Vmax values for LDHB were determined in the presence AXKO-0046. As the AXKO-0046 concentration increased in the reaction, both Vmax and Km decreased proportionally (Supplementary Fig. 3 and Table 1). The Lineweaver–Burke plot lines were nearly parallel (Fig. 3c,d), indicating uncompetitive inhibition with a strong preference for inhibiting the enzyme–substrate complex.
A solution of AXKO-0046 (0.00001, 0.0001, 0.001, 0.01, 0.1, 1, 10, and 100 μM) with 0.25 nM LDHB was then added. The enzymatic reactions were performed at room temperature for 15 min in triplicate. At each inhibitor concentration, the dependence of the initial reaction velocity on the substrate concentration was fitted to a nonlinear Michaelis–Menten model to obtain the Km and Vmax values using GraphPad Prism. Lineweaver–Burk plots were generated by superimposing the data of 1/[velocity] and 1/[substrate] and the line corresponding to the Michaelis–Menten nonlinear fit.

LDHB [3] = target: T1, LDHB; experiment: Time-dependent inhibition (pre-incubation of AXKO-0046 and LDHB); format: biochemical; details: pre-incubation with LDHB up to 120 min
Description: We then assessed whether there was any time dependence to the onset of inhibition by varying the time for which AXKO-0046 and LDHB were pre-incubated before initiating the enzymatic reaction.
Supplementary Figure 4. Time-dependent inhibition of LDHB activity by AXKO-0046. Time-dependent inhibition was measured by pre-incubating AXKO-0046 and LDHB for 0, 30, 60, or 120 min, as indicated, before initiating the LDHB reaction. Data are shown as mean (n = 2).

Cellular activity = format: cell-based
CC(=O)C(=O)O = system: T3, CC(=O)C(=O)O; experiment: Determination of substrate Km for LDHB (assay optimisation); format: biochemical, human; details: other: 500 µM NADH, increasing pyruvate
T3 construct: purchased R&D Systems
Description: Next, we optimised the assay conditions of RF-MS. Titration of human LDHB was examined at concentrations ranging from 0.0625 to 1 nM. […] We used 0.25 nM LDHB throughout assay development and screening to ensure enzyme activation. […] The Km values obtained from the two assays were consistent with the reported values for LDHB[15],[16].
as §3
Data were fitted to the Michaelis–Menten equations to obtain the kinetic constant Km using GraphPad Prism. Data are shown as mean ± standard deviation (n = 4).

[4] = system: NC(=O)C1=CN([C@@H]2O[C@H](COP(=O)(O)OP(=O)(O)OC[C@H]3O[C@@H](n4cnc5c(N)ncnc54)[C@H](O)[C@@H]3O)[C@@H](O)[C@H]2O)C=CC1; experiment: purified protein, by the assay type; details: other: 500 μM pyruvate, increasing NADH
[5] = read-out: EC50 (μM), LDHB inhibitory activity of AXKO-0046 derivatives

T1 sequence (P07195 whole entry): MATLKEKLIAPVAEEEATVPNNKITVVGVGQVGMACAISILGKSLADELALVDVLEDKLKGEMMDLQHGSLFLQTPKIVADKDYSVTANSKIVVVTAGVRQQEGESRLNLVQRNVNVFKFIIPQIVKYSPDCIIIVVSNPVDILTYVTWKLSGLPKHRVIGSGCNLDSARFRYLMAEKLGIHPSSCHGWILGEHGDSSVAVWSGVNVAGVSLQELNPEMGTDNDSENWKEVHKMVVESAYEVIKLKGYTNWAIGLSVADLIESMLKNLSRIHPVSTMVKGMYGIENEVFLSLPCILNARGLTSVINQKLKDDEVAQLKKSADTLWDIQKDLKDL

Molecule: c1ccc(CNCCc2c(CNC3CCCCCC3)[nH]c3ccccc23)cc1 [AXKO-0046, N-({3-[2-(benzylamino)ethyl]-1H-indol-2-yl}methyl) cycloheptanamine]
- EC50 (LDHB [1]; four-parameter fit, read-out: EC50 for LDHB): 0.042 µM
- inhibition of LDHA (concentration response curve) (human LDHA): did not inhibit LDHA
- mode of inhibition with respect to NADH and pyruvate (LDHB [2]): uncompetitive with both substrates
- Vmax (NADH) (LDHB [2]; AXKO-0046 0.00001 µM, 100 μM pyruvate): 10.1 µM/min
- Vmax (Pyruvate) (LDHB [2]; AXKO-0046 0.00001 µM, 100 μM NADH): 7.3 µM/min
- Vmax (NADH) (LDHB [2]; AXKO-0046 0.0001 µM, 100 μM pyruvate): 10.7 µM/min
- Vmax (Pyruvate) (LDHB [2]; AXKO-0046 0.0001 µM, 100 μM NADH): 6.9 µM/min
- Vmax (NADH) (LDHB [2]; AXKO-0046 0.001 µM, 100 μM pyruvate): 9.7 µM/min
- Vmax (Pyruvate) (LDHB [2]; AXKO-0046 0.001 µM, 100 μM NADH): 6.5 µM/min
- Vmax (NADH) (LDHB [2]; AXKO-0046 0.01 µM, 100 μM pyruvate): 8.3 µM/min
- Vmax (Pyruvate) (LDHB [2]; AXKO-0046 0.01 µM, 100 μM NADH): 6.6 µM/min
- Vmax (NADH) (LDHB [2]; AXKO-0046 0.1 µM, 100 μM pyruvate): 6.0 µM/min
- Vmax (Pyruvate) (LDHB [2]; AXKO-0046 0.1 µM, 100 μM NADH): 4.3 µM/min
- Vmax (NADH) (LDHB [2]; AXKO-0046 1 µM, 100 μM pyruvate): 2.9 µM/min
- Vmax (Pyruvate) (LDHB [2]; AXKO-0046 1 µM, 100 μM NADH): 2.0 µM/min
- Vmax (NADH) (LDHB [2]; AXKO-0046 10 µM, 100 μM pyruvate): 2.1 µM/min
- Vmax (Pyruvate) (LDHB [2]; AXKO-0046 10 µM, 100 μM NADH): 1.6 µM/min
- Vmax (NADH) (LDHB [2]; AXKO-0046 100 µM, 100 μM pyruvate): 2.2 µM/min
- Vmax (Pyruvate) (LDHB [2]; AXKO-0046 100 µM, 100 μM NADH): 1.6 µM/min
- IC50 (LDHB [2]; NADH 30 μM, 100 μM pyruvate): 702 nM
- IC50 (LDHB [2]; NADH 50 μM, 100 μM pyruvate): 330 nM
- IC50 (LDHB [2]; NADH 100 μM, 100 μM pyruvate): 223 nM
- IC50 (LDHB [2]; NADH 200 μM, 100 μM pyruvate): 94.2 nM
- IC50 (LDHB [2]; Pyruvate 30 μM, 100 μM NADH): 197 nM
- IC50 (LDHB [2]; Pyruvate 50 μM, 100 μM NADH): 114 nM
- IC50 (LDHB [2]; Pyruvate 200 μM, 100 μM NADH): 96.3 nM
- inhibition potential with pre-incubation time (LDHB [3]): did not increase with pre-incubation time
- cellular activity (Cellular activity): no potent cellular activity

Molecule: CN(CCc1c(CN(C)C2CCCCCC2)[nH]c2ccccc12)Cc1ccccc1 [AXKO-0058]
- EC50 (LDHB [1]; [5]): 8.3 µM

Molecule: CN(CCc1c(CNC2CCCCCC2)[nH]c2ccccc12)Cc1ccccc1 [AXKO-0060]
- EC50 (LDHB [1]; [5]): 0.25 µM

Molecule: Cn1c(CNC2CCCCCC2)c(CCNCc2ccccc2)c2ccccc21 [AXKO-0067]
- EC50 (LDHB [1]; [5]): > 100 µM

Molecule: CN(Cc1[nH]c2ccccc2c1CCNCc1ccccc1)C1CCCCCC1 [AXKO-0077]
- EC50 (LDHB [1]; [5]): 7.4 µM

Molecule: human LDHB (Homo sapiens)
- Km (CC(=O)C(=O)O): 116 µM
- Km [4]: 64 µM
